Results reported in ChEMBL document CHEMBL5223175, “Discovery of novel 2-oximino-2-indolylacetamide derivatives as potent anticancer agents capable of inducing cell autophagy and ferroptosis” (Bioorg Med Chem, 2023).
The source made the active and inactive calls. The rule behind the calls is not given here.

Assays:
HeLa = test: Antiproliferative activity against human HeLa cells assessed as cell viability at 80 uM incubated for 72 hrs by CCK-8 assay; assay type: functional; details: read-out: Activity
SK-HEP1 = test: Antiproliferative activity against human SK-HEP1 cells assessed as cell viability at 80 uM incubated for 72 hrs by CCK-8 assay; assay type: functional; details: read-out: Activity
5-8F [1] = test: Antiproliferative activity against human 5-8F cells assessed as reduction in cell viability incubated for 72 hrs by CCK-8 assay; assay type: functional, cell-based
CAL-27 [2] = test: Antiproliferative activity against human CAL-27 cells assessed as reduction in cell viability incubated for 72 hrs by CCK-8 assay; assay type: functional, cell-based; details: CAL-27, 72 h
FaDu = test: Antiproliferative activity against human FaDu cells assessed as reduction in cell viability incubated for 72 hrs by CCK-8 assay; assay type: functional, cell-based
[3] = Antiproliferative activity against human NP69SV40T cells assessed as reduction in cell viability incubated for 72 hrs by CCK-8 assay; assay type: toxicity, cell-based
5-8F [4] = test: Antiproliferative activity against human 5-8F cells assessed as reduction in cell viability at 5 to 40 uM incubated for 48 hrs by CCK-8 assay; assay type: functional, cell-based; details: dose 5-40 µM
CAL-27 [5] = test: Antiproliferative activity against human CAL-27 cells assessed as reduction in cell viability at 5 to 40 uM incubated for 48 hrs by CCK-8 assay; assay type: functional, cell-based; details: dose 5-40 µM
5-8F [6] = test: Inhibition of colony formation in human 5-8F cells at 10 to 30 uM replaced with fresh medium for every 3 days and measured for 10 to 15 days by Giemsa staining based assay; assay type: functional, cell-based; details: dose 10-30 µM, time 10-15 day
5-8F [7] = test: Antiproliferative activity against human 5-8F cells assessed as reduction in Ki67 expression at 10 to 30 uM by Western blotting analysis; assay type: functional, cell-based; details: dose 10-30 µM
CAL-27 [8] = test: Antiproliferative activity against human CAL-27 cells assessed as reduction in Ki67 expression at 10 to 30 uM by Western blotting analysis; assay type: functional, cell-based; details: dose 10-30 µM
5-8F [9] = test: Induction of apoptosis in human 5-8F cells assessed as appearance of rounded cells incubated for 48 hrs by microscopic analysis; assay type: functional, cell-based; details: dose 10-30 µM
5-8F [10] = test: Induction of apoptosis in human 5-8F cells assessed as appearance of floating cells incubated for 48 hrs by microscopic analysis; assay type: functional, cell-based; details: dose 10-30 µM
5-8F [11] = test: Induction of apoptosis in human 5-8F cells at 30 uM incubated for 48 hrs by Annexin V-FITC and PI staining based flow cytometry analysis; assay type: functional
5-8F [12] = test: Induction of apoptosis in human 5-8F cells assessed as downregulation of procaspase-3 expression at 10 to 30 uM incubated for 48 hrs by Western blotting analysis; assay type: functional, cell-based; details: dose 10-30 µM
5-8F [13] = test: Induction of apoptosis in human 5-8F cells assessed as upregulation of p53 expression at 10 to 30 uM incubated for 48 hrs by Western blotting analysis; assay type: functional, cell-based; details: dose 10-30 µM
5-8F [14] = test: Induction of apoptosis in human 5-8F cells assessed as upregulation of Bax expression at 10 to 30 uM incubated for 48 hrs by Western blotting analysis; assay type: functional, cell-based; details: dose 10-30 µM
5-8F [15] = test: Induction of autophagy in human 5-8F cells assessed as increase in LC3 puncta accumulation at 30 uM incubated for 48 hrs by confocal microscopy analysis; assay type: functional, cell-based
5-8F [16] = test: Induction of autophagy in human 5-8F cells assessed as increase in LC3I to LC3II conversion at 10 to 30 uM by Western blotting analysis; assay type: functional, cell-based; details: dose 10-30 µM, time 48.0 hrs
5-8F [17] = test: Induction of ferroptosis in human 5-8F cells assessed as change in mitochondrial morphology at 30 uM incubated for 48 hrs by TEM analysis; assay type: functional, cell-based
5-8F [18] = test: Induction of ferroptosis in human 5-8F cells assessed as appearance of thickened cristae at 30 uM incubated for 48 hrs by TEM analysis; assay type: functional, cell-based
5-8F [19] = test: Induction of ferroptosis in human 5-8F cells assessed as appearance of pseudo inclusion bodies at 30 uM incubated for 48 hrs by TEM analysis; assay type: functional, cell-based
5-8F [20] = test: Induction of ferroptosis in human 5-8F cells assessed as appearance of […] at 30 uM incubated for 48 hrs by TEM analysis; assay type: functional, cell-based
5-8F [21] = test: Induction of ferroptosis in human 5-8F cells assessed as appearance of vacuoles at 30 uM incubated for 48 hrs by TEM analysis; assay type: functional, cell-based
5-8F [22] = test: Induction of ferroptosis in human 5-8F cells assessed as decrease in GSH level at 10 to 30 uM incubated for 48 hrs by Western blotting analysis; assay type: functional, cell-based; details: dose 10-30 µM
5-8F [23] = test: Induction of ferroptosis in human 5-8F cells assessed as decrease in GPx4 expression at 10 to 30 uM incubated for 48 hrs in presence of Fer-1 by Western blotting analysis; assay type: functional, cell-based; details: dose 10-30 µM
5-8F [24] = test: Induction of ferroptosis in human 5-8F cells assessed as decrease in GPx4 expression at 10 to 30 uM incubated for 48 hrs in presence of Era by Western blotting analysis; assay type: functional, cell-based; details: dose 10-30 µM
5-8F [25] = test: Induction of ROS generation in human 5-8F cells at 10 to 30 uM after 48 hrs by DCFH-DA staining based flow cytometry analysis; assay type: functional, cell-based; details: dose 10-30 µM
5-8F [26] = test: Induction of ROS generation in human 5-8F cells at 10 to 30 uM after 48 hrs by fluorescence microscopy analysis; assay type: functional, cell-based; details: dose 10-30 µM
5-8F [27] = test: Induction of lipid peroxidation in human 5-8F cells at 30 uM after 48 hrs by BODIPY C11 staining based fluorescence microscopy analysis; assay type: functional, cell-based
5-8F [28] = test: Induction of lipid peroxidation in human 5-8F cells at 30 uM after 48 hrs by flow cytometry analysis; assay type: functional, cell-based
5-8F [29] = test: Upregulation of p38 MAPK phosphorylation in human 5-8F cells at 10 to 30 uM by Western blotting analysis; assay type: functional, cell-based; details: dose 10-30 µM
5-8F [30] = test: Downregulation of p-AKT expression in human 5-8F cells at 10 to 30 uM by Western blotting analysis; assay type: functional, cell-based; details: dose 10-30 µM
5-8F [31] = test: Downregulation of p-mTOR expression in human 5-8F cells at 10 to 30 uM by Western blotting analysis; assay type: functional, cell-based; details: dose 10-30 µM
5-8F [32] = test: Antitumor activity against human 5-8F cells xenografted in BALB/c mouse assessed as tumor growth inhibition at 10 to 20 mg/kg, ip administered daily; assay type: functional, organism-based; details: dose 10-20 mg/kg
[33] = Toxicity in BALB/c mouse xenografted with human 5-8F cells assessed as decrease in body weight at 10 to 20 mg/kg, ip administered daily; assay type: organism-based; details: in vivo, dose 10-20 mg/kg
5-8F [34] = test: Antitumor activity against human 5-8F cells xenografted in BALB/c mouse assessed as decrease in GPx4 expression at 10 to 20 mg/kg, ip administered daily; assay type: functional, organism-based; details: dose 10-20 mg/kg
[35] = Toxicity in BALB/c mouse xenografted with human 5-8F cells assessed as change in heart morphology at 10 to 20 mg/kg, ip administered daily by H and E staining based assay; assay type: organism-based; details: in vivo, dose 10-20 mg/kg
[36] = Toxicity in BALB/c mouse xenografted with human 5-8F cells assessed as change in liver morphology at 10 to 20 mg/kg, ip administered daily by H and E staining based assay; assay type: organism-based; details: in vivo, dose 10-20 mg/kg
[37] = Toxicity in BALB/c mouse xenografted with human 5-8F cells assessed as change in spleen morphology at 10 to 20 mg/kg, ip administered daily by H and E staining based assay; assay type: organism-based; details: in vivo, dose 10-20 mg/kg

**Q.** Which viability at 80 µM (HeLa) does the source give for `Cn1cc(/C(=N\O)C(=O)Nc2ccc(Cl)cc2)c2ccccc21` here?
**A.** 12.3%

**Q.** And the viability at 80 µM (SK-HEP1)?
**A.** 20.9%

**Q.** And the IC50 (5-8F [1])?
**A.** 9.43 µM

**Q.** And the IC50 (CAL-27 [2])?
**A.** 13.7 µM

**Q.** What about the IC50 (FaDu) of the same compound?
**A.** 22.2 µM

**Q.** What about the IC50 at 72 h [3] of the same compound?
**A.** 70.9 µM

**Q.** And the Activity (5-8F [4])?
**A.** Active

**Q.** And the Activity (CAL-27 [5])?
**A.** Active

**Q.** And the inhibition (5-8F [6])?
**A.** Active

**Q.** And the Activity (5-8F [7])?
**A.** Active

**Q.** What about the Activity (CAL-27 [8]) of the same compound?
**A.** Active

**Q.** What about the Activity (5-8F [9]) of the same compound?
**A.** Dose-Dependent Effect

**Q.** What about the Activity (5-8F [10]) of the same compound?
**A.** Dose-Dependent Effect

**Q.** What about the Activity (5-8F [11]) of the same compound?
**A.** 29.1%

**Q.** And the Activity (5-8F [12])?
**A.** Active

**Q.** What about the Activity (5-8F [13]) of the same compound?
**A.** Active

**Q.** And the Activity (5-8F [14])?
**A.** Active

**Q.** What about the Activity (5-8F [15]) of the same compound?
**A.** Active

**Q.** What about the Activity (5-8F [16]) of the same compound?
**A.** Active

**Q.** And the Activity (5-8F [17])?
**A.** Active

**Q.** And the Activity (5-8F [18])?
**A.** Active

**Q.** And the Activity (5-8F [19])?
**A.** Active

**Q.** What about the Activity (5-8F [20]) of the same compound?
**A.** Active

**Q.** And the Activity (5-8F [21])?
**A.** Active

**Q.** And the Activity (5-8F [22])?
**A.** Active

**Q.** And the Activity (5-8F [23])?
**A.** inactive

**Q.** What about the Activity (5-8F [24]) of the same compound?
**A.** Active

**Q.** What about the Activity (5-8F [25]) of the same compound?
**A.** Active

**Q.** And the Activity (5-8F [26])?
**A.** Active

**Q.** And the Activity (5-8F [27])?
**A.** Active

**Q.** And the Activity (5-8F [28])?
**A.** Active

**Q.** And the Activity (5-8F [29])?
**A.** Active

**Q.** What about the Activity (5-8F [30]) of the same compound?
**A.** Active

**Q.** And the Activity (5-8F [31])?
**A.** Active

**Q.** What about the Activity (5-8F [32]) of the same compound?
**A.** Active

**Q.** And the Activity [33]?
**A.** Non-Toxic

**Q.** And the Activity (5-8F [34])?
**A.** Active

**Q.** What about the Activity [35] of the same compound?
**A.** Non-Toxic

**Q.** What about the Activity [36] of the same compound?
**A.** Non-Toxic

**Q.** And the Activity [37]?
**A.** Non-Toxic
